Experimental data: patent US8957056B2, “Migrastatin analogs in the treatment of cancer” (Sloan-Kettering Instiute for Cancer Research, priority 2004, dated 2015)
Like-named read-outs stand apart in the source and are kept apart here.

What was measured:
[1] = Chamber cell migration assay, preliminary (Table 3); format: cell-based; details: 36 h, tested concentrations 200, 100, 50, 25, 10 μM
Procedure: Cells were grown in an appropriate media to 70 to 80% confluence and incubated in serum and growth factor free media for 24 h. Cells were detached by trypsin treatment, collected by centrifugation and resuspended in serum free media to a final concentration of 150,000 cells/mL. 400 μL of the cell suspension were loaded into a fibronectin coated insert for 24 well multidishes. 750 μL fully supplemented media were applied to the compartment under the insert. To both chambers the inhibitor was added at the intended concentration and the plates were incubated for 36 h at 37° C., 5% CO2. […] The resulting CyQuant assay solution was transferred to the cavities of a 96 well microtiter plate and the fluorescence signal was recorded in an appropriate reader. The CyQuant dye forms a highly fluorescent complex with DNA, thus the fluorescence signal is proportional to the number of cells that migrated through the membrane in the presence of the test compound (N^inh) A positive control (i.e., without a test compound in the growth media) was carried out according to the procedure described above, except that no test compound was added. The positive control fluorescent reading correlates with the number of cells that migrate through the membrane in the absence of inhibitor (N^+). […] The anti-migratory effect of a test compound is determined by the ratio (N^inh−N^−)/(N^+−N^−).

mouse 4T1 cell = mouse 4T1 cell proliferation; previously reported (WO 2004/087672); cited from earlier work
[2] = test system: mouse breast tumor cells (4T1 cells); assay: Boyden chamber cell migration assay, 4T1; format: cell-based; details: Mus musculus, 4T1, read-out: IC50 value, chamber cell migration assay
HUVEC = assay: Tube formation assay; format: cell-based, human; details: HUVEC on matrigel, 16-18 h, tested concentrations 200, 100, 50, 25, 10 μM
Procedure: A protocol was designed based on the instructions from the provider (BD Bioscience, San Jose, Calif.). Briefly, wells of a 48 well culture dish were covert with 150 μL matrigel and the matrigel was gelatinized for 30 min at 37° C. A 80-90% confluent HUVEC (BD Bioscience, San Jose, Calif.) culture was trypsin treated, the detached cells were collected by centrifugation and resuspended in EGM-2 media (BD Bioscience, San Jose, Calif.). Cell concentration was adjusted to 100.000 cells/mL. 400 μL of the cell suspension were filled in the matrigel coated wells, and a solution of the inhibitor was added to the intended final concentration. The plates were incubated at 37° C. with 5% CO2 for 16-18 h. Media was removed, and the matrigel surface was washed twice with 500 μL PBS before cells were labeled with 250 μL 8 μM Calcein AM (Pierce, Rockford, Ill.) in PBS for 30 min at 37° C. After two additional washing steps (500 μL PBS) cells were visualized under an inverted microscope. Fluorescence was excited at 488 nm and recorded at 538 nm. The minimum effect concentration was defined as the minimal inhibitor concentration that caused a definite disturbance of the complexity of the formed tube network.

[3] = test system: adherent cells (e.g. KYSE-520 cells); assay: Wound healing (scratch) assay, preliminary (Table 2); format: cell-based; details: 28 to 30 h, tested concentrations 200, 100, 50, 25, 10 μM
Procedure: The wound healing assay was performed based on the method described by Nakae et al. (Nakae et al., J. Antibiotics (2000), 53, 1130-1136). Briefly, adherent cells were grown in a suitable media to confluence (e.g. KYSE-520 cells in RPMI-1640 with 10% FBS). Cells were starved for 24 h in serum free media A scratch (ca. 0.5 mm) was applied and the cell layer was washed twice with PBS after removal of the media. Fresh, serum free media with the test compound at the desired concentration was added and the cells were incubated for 28 to 30 h at 37° C., 5% CO2. The scratch size was compared to that observed for cells exposed to 100 μM Migrastatin. Test compounds associated with a scratch size equal to or larger than that observed for cells exposed to 100 μM Migrastatin were deemed to have cell migration inhibitory activity at least equal to Migrastatin.

[4] = test system: six solid human tumor cell lines and four liquid cancer cell lines; assay: Chamber cell migration, various human cancer cells (overall statements); format: cell-based; details: migration inhibition
Procedure: Additional evaluation was conducted in a variety of human cancer cells and xenographs (See FIGS. 4-19). […] Unexpectedly, a very high selectivity between the various tumor cell lines was detected (Table 4 and FIG. 2). […] As stated above, non-transformed human cells such as HUVEC appear to be largely more resistant to the compounds. […] This was an unforeseen discovery, especially in light of the response observed for these compounds to the 4T1 mouse breast cancer cell line (previously reported in WO 2004/087672).
Cell migrations were assayed with 8 μm of microporous 6.5-mm transwell plates (Corning). 200 μl of 2×10^5 cells in serum-free RPMI1640 medium containing 0.5% BSA were added to the upper chamber and 600 μl of medium with 10% fetal bovine serum was added to the lower chamber. […] Cells migrated to the lower wells were collected and counted for liquid tumors, solid tumors were processed as previously described.^28 Data shown are representative of at least three experiments.

[5] = Mouse blood plasma stability; details: test period one hour
Procedure: The biological evaluation of the compounds (in terms of their ability to inhibit cell migration) was accomplished in a Boyden chamber cell migration assay. In this assay, mouse breast tumor cells (4T1 cells) or endothelial cells (HUVECs) are seeded on the upper chamber of a transwell insert. Growth factor-containing serum is added to the lower chamber.
In anticipation of subsequent in vivo evaluation of these compounds and others, preliminary metabolic stability studies were carried out. […] As a test of the ‘deactivation hypothesis’, the hydrolysis product of macrolactone 48 was prepared (Scheme 27) and tested for its activity against tumor cell migration.

[6] = reported by Imoto / Kosan; read-out: IC50 value, reported activity in a wound healing assay; cited from earlier work

Compound: CO[C@H]1/C=C/CC/C=C/C(=O)OC([C@H](C)C(=O)CCCC2CC(=O)NC(=O)C2)/C(C)=C\[C@@H](C)[C@@H]1O (some centres unmarked) [Migrastatin (1), Migrastatin]
- IC50 [1]: 200 µM
- IC50 (mouse 4T1 cell): 42 µM
- IC50 [2]: 29 µM
- Minimum effect concentration (HUVEC): 100 µM
- Minimum effect concentration [3]: 100 µM
- response of the human tumor cell lines tested [4]: did not respond well to any of the cell lines tested
- metabolic stability in mouse blood plasma [5]: completely inert toward lactone opening
- IC50 [6]: 29 µM
